Measurements published in ChEMBL document CHEMBL5537179, “Combination Therapy and Dual-Target Inhibitors Based on LSD1: New Emerging Tools in Cancer Therapy” (J Med Chem, 2024).
pEC50, pIC50: −log10 of the molar value.

What was measured:
[1] = molecular target: T1, Histone deacetylase 1 (Homo sapiens, UniProt Q13547); test: Inhibition of human recombinant HDAC1 using fluorogenic HDAC substrate preincubated for 30 mins followed by substrate addition and measured after 15 mins by fluorescence based assay
T1 sequence (Q13547 whole entry): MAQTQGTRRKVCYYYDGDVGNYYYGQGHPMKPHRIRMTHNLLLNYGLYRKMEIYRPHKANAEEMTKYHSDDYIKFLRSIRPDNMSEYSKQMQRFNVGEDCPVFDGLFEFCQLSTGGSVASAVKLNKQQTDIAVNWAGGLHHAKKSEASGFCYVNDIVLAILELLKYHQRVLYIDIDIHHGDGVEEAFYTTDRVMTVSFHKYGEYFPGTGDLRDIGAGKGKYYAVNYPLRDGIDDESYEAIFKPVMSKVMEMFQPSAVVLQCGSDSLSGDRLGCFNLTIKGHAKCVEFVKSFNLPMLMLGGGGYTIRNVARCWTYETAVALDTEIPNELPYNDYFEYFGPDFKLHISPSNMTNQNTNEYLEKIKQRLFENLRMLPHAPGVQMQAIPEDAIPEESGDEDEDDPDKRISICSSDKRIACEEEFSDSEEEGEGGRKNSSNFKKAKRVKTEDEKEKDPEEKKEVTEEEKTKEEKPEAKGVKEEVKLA

[2] = molecular target: Lysine-specific demethylase 6A (Homo sapiens, UniProt O15550); test: Inhibition of human UTX using Biotin-KAPRKQLATKAARK(me3)SAPATGG as substrate by MALDI-TOF analysis
Chain of Lysine-specific demethylase 6A (O15550 whole entry): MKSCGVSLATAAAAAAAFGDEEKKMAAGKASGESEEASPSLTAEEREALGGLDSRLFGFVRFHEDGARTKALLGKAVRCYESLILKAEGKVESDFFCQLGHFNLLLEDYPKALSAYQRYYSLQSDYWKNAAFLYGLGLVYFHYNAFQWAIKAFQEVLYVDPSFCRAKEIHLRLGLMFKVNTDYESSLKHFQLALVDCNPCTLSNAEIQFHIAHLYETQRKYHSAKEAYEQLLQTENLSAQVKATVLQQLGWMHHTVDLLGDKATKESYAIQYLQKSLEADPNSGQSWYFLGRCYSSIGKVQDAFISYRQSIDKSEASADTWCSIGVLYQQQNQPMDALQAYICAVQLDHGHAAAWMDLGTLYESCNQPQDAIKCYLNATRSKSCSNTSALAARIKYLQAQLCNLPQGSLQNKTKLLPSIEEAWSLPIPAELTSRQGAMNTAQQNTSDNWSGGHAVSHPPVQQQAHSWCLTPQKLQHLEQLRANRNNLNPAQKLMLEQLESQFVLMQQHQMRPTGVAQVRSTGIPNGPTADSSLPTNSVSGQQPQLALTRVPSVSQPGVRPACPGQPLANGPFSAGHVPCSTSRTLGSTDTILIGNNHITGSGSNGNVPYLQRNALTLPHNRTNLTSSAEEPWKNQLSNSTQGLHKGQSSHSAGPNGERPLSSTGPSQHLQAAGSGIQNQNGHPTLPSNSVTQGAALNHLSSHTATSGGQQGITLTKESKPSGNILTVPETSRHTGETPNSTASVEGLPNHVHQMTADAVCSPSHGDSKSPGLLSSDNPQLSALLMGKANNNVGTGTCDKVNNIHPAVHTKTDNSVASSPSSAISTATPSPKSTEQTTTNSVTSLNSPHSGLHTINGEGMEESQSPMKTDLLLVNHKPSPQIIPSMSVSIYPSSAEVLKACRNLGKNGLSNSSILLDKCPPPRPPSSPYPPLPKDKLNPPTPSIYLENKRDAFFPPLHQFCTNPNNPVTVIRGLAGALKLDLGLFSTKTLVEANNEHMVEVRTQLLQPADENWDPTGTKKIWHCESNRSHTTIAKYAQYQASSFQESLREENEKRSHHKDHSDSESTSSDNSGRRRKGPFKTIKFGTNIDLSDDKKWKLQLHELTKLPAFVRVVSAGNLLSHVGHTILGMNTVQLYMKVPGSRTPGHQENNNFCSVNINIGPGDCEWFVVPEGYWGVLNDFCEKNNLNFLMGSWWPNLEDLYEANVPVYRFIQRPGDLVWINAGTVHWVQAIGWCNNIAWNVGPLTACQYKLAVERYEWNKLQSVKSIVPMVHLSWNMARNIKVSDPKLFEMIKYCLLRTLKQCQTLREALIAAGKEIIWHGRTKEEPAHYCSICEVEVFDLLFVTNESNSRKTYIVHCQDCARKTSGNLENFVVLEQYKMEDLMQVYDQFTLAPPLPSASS

[3] = molecular target: T2, Lysine-specific histone demethylase 1A (Homo sapiens, UniProt O60341)
[4] = molecular target: T3, Bromodomain-containing protein 4 (Homo sapiens, UniProt O60885); test: Inhibition of human BRD4 BD1 by TR-FRET assay
[5] = molecular target: T3, Bromodomain-containing protein 4; test: Inhibition of human BRD4 BD2 by TR-FRET assay
[6] = Half life in human plasma; assay type: ADME, cell-free
[7] = molecular target: T2, Lysine-specific histone demethylase 1A; test: Inhibition of human LSD1 by luminescence assay
[8] = Tmax in human at 5 mg/kg, po; assay type: ADME, organism-based; settings: in vivo
[9] = Cmax in human at 5 mg/kg, po; assay type: ADME, organism-based; settings: in vivo
[10] = test system: MV4-11; test: cells; settings: Homo sapiens, MV4-11, 72 h
[11] = test system: Kasumi 1; test: cells; settings: Homo sapiens, Kasumi 1, 168 h
[12] = in vitro; settings: human, THP-1 cells
[13] = molecular target: Spermine oxidase (Homo sapiens, UniProt Q9NWM0); test: Inhibition of SMOX (unknown origin) using spermine as substrate preincubated for 1 hr followed by substrate addition and measured after 20 mins by luminometer analysis
Chain of Spermine oxidase (Q9NWM0 whole entry): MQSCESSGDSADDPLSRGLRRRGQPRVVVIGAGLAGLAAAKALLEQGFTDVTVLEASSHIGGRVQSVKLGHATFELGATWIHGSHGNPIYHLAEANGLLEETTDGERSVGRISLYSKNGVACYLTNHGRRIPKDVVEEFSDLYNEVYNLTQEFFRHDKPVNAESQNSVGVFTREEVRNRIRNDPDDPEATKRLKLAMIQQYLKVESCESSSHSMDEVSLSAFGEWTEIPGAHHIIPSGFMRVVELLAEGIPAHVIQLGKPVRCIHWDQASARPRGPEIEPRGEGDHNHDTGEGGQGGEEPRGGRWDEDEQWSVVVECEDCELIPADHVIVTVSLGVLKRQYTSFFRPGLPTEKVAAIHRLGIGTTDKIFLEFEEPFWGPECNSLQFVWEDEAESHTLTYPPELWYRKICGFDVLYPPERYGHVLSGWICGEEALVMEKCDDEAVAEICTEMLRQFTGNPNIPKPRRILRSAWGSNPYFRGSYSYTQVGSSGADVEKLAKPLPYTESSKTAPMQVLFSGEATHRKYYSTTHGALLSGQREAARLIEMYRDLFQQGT

[14] = molecular target: T2, Lysine-specific histone demethylase 1A; test: Inhibition of LSD1 (unknown origin) at 10 uM relative to control
[15] = molecular target: DCN1-like protein 1 (Homo sapiens, UniProt Q96GG9); test: Inhibition of DCN1 (unknown origin) by TR-FRET analysis
Chain of DCN1-like protein 1 (Q96GG9 whole entry): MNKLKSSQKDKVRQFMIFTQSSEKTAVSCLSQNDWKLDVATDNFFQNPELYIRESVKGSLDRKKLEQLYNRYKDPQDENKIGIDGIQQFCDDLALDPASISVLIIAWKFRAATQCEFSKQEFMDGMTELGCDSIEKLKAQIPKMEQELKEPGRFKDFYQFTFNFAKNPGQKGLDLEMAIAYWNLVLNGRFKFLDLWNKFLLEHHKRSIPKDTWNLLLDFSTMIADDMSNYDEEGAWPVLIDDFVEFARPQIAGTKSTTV

[16] = test system: Leukemia cell; test: Antitumor activity against human Leukemia cells assessed as reduction in cell growth incubated for 72 hrs by MTT assay; assay type: functional, cell-based
[17] = Half life in BALB/c mouse plasma at 5 mg/kg, ip measured after 24 hrs by LC-MS/MS analysis; assay type: ADME, organism-based
[18] = Oral bioavailability in BALB/c mouse at 5 mg/kg measured after 24 hrs by LC-MS/MS analysis; assay type: ADME, organism-based; settings: in vivo
[19] = molecular target: Tubulin; test: Inhibition of tubulin polymerization (unknown origin) by fluorescence based assay; assay type: protein-complex assay, Homo sapiens
[20] = molecular target: T2, Lysine-specific histone demethylase 1A; test: Inhibition of human LSD1 expressed in Escherichia coli Rosetta (DE3) cells using H3K4me2 peptide as substrate and measured after 1 hr by fluorescence based analysis
[21] = molecular target: T1, Histone deacetylase 1; test: Inhibition of HDAC1 (unknown origin)
[22] = Oral bioavailability in mouse; assay type: ADME, organism-based; settings: in vivo
[23] = Half life in CD-1 mouse at 2 mg/kg, iv; assay type: ADME, organism-based; settings: in vivo
[24] = Cmax in CD-1 mouse at 2 mg/kg, iv; assay type: ADME, organism-based; settings: in vivo

## NC1CC1c1ccc(NC(=O)CCCc2ccccc2)cc1 (stereo not given)
[1]
  pIC50: < 4.52

## NC1CC1c1ccc(NC(=O)c2ccc(O)c3ncccc23)cc1 (stereo not given)
[2]
  pIC50: 4.57
[3]
  pIC50: > 6.00

## C/C(=N\NC(=O)c1cccc(S(=O)(=O)N2CCOCC2)c1)c1cc(Cl)ccc1O
[4]
  pIC50: 7.11
[5]
  pIC50: 7.48

## Nc1nnc(CN[C@@H]2C[C@H]2c2ccc(OCc3ccccc3)cc2)o1
[6]
  half-life: 22 h

## COC(=O)/C=C/c1ccc(CN(C(=O)OC(C)(C)C)C2CC2c2ccc(F)cc2)cc1 (stereo not given)
[7]
  pIC50: 7.30

## COc1ccc(-c2c(-c3ccc(C#N)c(F)c3)nc(N3CCC(N)CC3)n(C)c2=O)cc1F.O=S(=O)(O)c1ccccc1 [PULRODEMSTAT BESILATE]
[8]
  Tmax: 4 h
[9]
  Cmax: 19 ng/mL
[10]
  pIC50: 5.85
[11]
  pIC50: 8.70
[12]
  IC50 at 72 h: 7 nM

## C=C/C=C/c1cccc(Oc2cccc(Cl)c2CNc2nc(N)n[nH]2)c1/C=C/C=C
[13]
  pIC50: 3.83

## Nc1n[nH]c(NCc2ccccc2Oc2ccc(-c3ccccc3)cc2)n1
[14]
  inhibition: 52.1%

## CN(C)CCn1nnnc1Sc1ccnc2nc(SCc3ccc(Br)cc3)nn12
[15]
  pIC50: 7.83

## N[C@H]1CC[C@H](N[C@@H]2C[C@H]2c2ccccc2)CC1
[16]
  pEC50: 10.00
[17]
  half-life: 10 h
[18]
  bioavailability: 77%

## O=S1(=O)CCCN(S(=O)(=O)c2ccc(-c3cnc(C4CC4)o3)cc2)c2ccccc21
[19]
  pIC50: 5.51
[20]
  pIC50: 5.55

## Nc1ccccc1NC(=O)c1ccc(CCCC(=O)Nc2ccc(C3CC3N)cc2)cc1 (stereo not given)
[21]
  pIC50: 6.52
[3]
  pIC50: 6.52

## O=C(O)c1ccc(CN2CCC(CN[C@@H]3C[C@H]3c3ccccc3)CC2)cc1 [GSK2879552]
[22]
  bioavailability: 59.2%
[23]
  half-life: 1.9 h
[24]
  Cmax: 720 ng/mL
